Results on 15 molecules are retold here after patent US8048892B2, “Azaquinolone based compounds exhibiting prolyl hydroxylase inhibitory activity, compositions, and uses thereof” (Amgen Inc., priority 2006, dated 2011).

Each structure is given as a SMILES string. Where only a bound is given, the exact number is not on record here.

In the test the target is HIF PHD2 (Homo sapiens, UniProt Q9GZT9). The test is described as follows: PHD2 inhibition assay (TR-FRET, VCB-Eu detection of hydroxylated P564-HIF1α peptide). In kind it is biochemical. Particulars: 2 nM PHD2, 100 nM P564-HIF1α peptide, 0.25 μM 2-oxoglutarate. Put shortly: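 Human PHD2 (2 nM final) preincubated 1 h at room temperature with compound and 100 μM FeCl2 in pH 6 MES buffer, 5% DMSO final. Reaction with 100 nM biotinylated P564-HIF1α peptide, 2 mM ascorbate and 0.25 μM 2-oxoglutarate for 1 h, stopped with succinate. Hydroxylation read by TR-FRET (VCB-Eu/streptavidin-APC, 655/615 nm); IC50 from 4-parameter fit of percent of control.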
(Time-resolved FRET reads energy transfer from a long-lived donor to a nearby acceptor.)

Chain of HIF PHD2 (Q9GZT9 whole entry): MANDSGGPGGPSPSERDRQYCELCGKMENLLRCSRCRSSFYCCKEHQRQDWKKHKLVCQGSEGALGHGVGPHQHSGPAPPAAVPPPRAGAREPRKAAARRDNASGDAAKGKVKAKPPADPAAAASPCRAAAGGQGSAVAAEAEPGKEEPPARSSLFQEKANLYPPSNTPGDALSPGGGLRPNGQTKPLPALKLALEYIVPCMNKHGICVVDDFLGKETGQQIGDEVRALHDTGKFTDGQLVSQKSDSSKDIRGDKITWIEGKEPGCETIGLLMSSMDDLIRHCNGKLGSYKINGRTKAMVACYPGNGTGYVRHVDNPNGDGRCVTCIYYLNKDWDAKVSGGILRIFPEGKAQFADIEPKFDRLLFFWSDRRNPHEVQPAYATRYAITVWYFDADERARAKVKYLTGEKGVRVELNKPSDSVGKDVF

As a reminder, the IC50 is the concentration that gives 50% inhibition. Low readings indicate greater potency, high ones weaker potency. Take `CCCCc1cnc2c(c1)c(O)c(C(=O)NCC(=O)O)c(=O)n2C` [Example 72, 2-(6-Butyl-4-hydroxy-1-methyl-2-oxo-1,2-dihydro-1,8-naphthyridine-3-carboxamido)acetic acid]: the half-inhibitory concentration (IC50) was in the range of 50 to 100 nM.
In turn, `C[C@H](NC(=O)c1c(O)c2cc(I)cnc2n(C)c1=O)C(=O)O` [Example 73, (S)-2-(4-Hydroxy-6-iodo-1-methyl-2-oxo-1,2-dihydro-1,8-naphthyridine-3-carboxamido)propanoic acid] came in with a half-maximal inhibitory concentration (IC50) of less than 50 nM.
As to `C[C@H](NC(=O)c1c(O)c2cc(-c3ccccc3)cnc2n(C)c1=O)C(=O)O` [Example 74, (S)-2-(4-Hydroxy-1-methyl-2-oxo-6-phenyl-1,2-dihydro-1,8-naphthyridine-3-carboxamido)propanoic acid], the IC50 was in the range of 100 to 500 nM.
Molecule `Cn1c(=O)c(C(=O)NCC(=O)O)c(O)c2cc(I)cnc21` [Example 75, 2-(4-Hydroxy-6-iodo-1-methyl-2-oxo-1,2-dihydro-1,8-naphthyridine-3-carboxamido)acetic acid] showed a concentration for half-maximal inhibition (IC50) of less than 50 nM.
Regarding `Cn1c(=O)c(C(=O)NCC(=O)O)c(O)c2cccnc21` [Example 76, 2-(4-Hydroxy-1-methyl-2-oxo-1,2-dihydro-1,8-naphthyridine-3-carboxamido)acetic acid], the half-inhibitory concentration (IC50) lay within 50 to 100 nM.
`Cn1c(=O)c(C(=O)NCC(=O)O)c(O)c2cc(F)cnc21` [Example 77, 2-(6-Fluoro-4-hydroxy-1-methyl-2-oxo-1,2-dihydro-1,8-naphthyridine-3-carboxamido)acetic acid]: the concentration for half-maximal inhibition (IC50) is 50 to 100 nM.
`Cn1c(=O)c(C(=O)NCC(=O)O)c(O)c2cc(C#CC(C)(C)C)cnc21` [Example 78, N-((6-(3,3-Dimethyl-1-butyn-1-yl)-4-hydroxy-1-methyl-2-oxo-1,2-dihydro-1,8-naphthyridin-3-yl)carbonyl)glycine]: the IC50 was less than 50 nM.
Take `CCc1cnc2c(c1)c(O)c(C(=O)NCC(=O)O)c(=O)n2C` [Example 79, 2-(6-Ethyl-4-hydroxy-1-methyl-2-oxo-1,2-dihydro-1,8-naphthyridine-3-carboxamido)acetic acid]: the IC50 was less than 50 nM.
Regarding `C#Cc1cnc2c(c1)c(O)c(C(=O)NCC(=O)O)c(=O)n2C` [Example 80, 2-(6-Ethynyl-4-hydroxy-1-methyl-2-oxo-1,2-dihydro-1,8-naphthyridine-3-carboxamido)acetic acid], the concentration for half-maximal inhibition (IC50) lay in the range of 100 to 500 nM.
The molecule `Cn1c(=O)c(C(=O)NCC(=O)O)c(O)c2cc(CCC3CC3)cnc21` [Example 81, 2-(6-(2-Cyclopropylethyl)-4-hydroxy-1-methyl-2-oxo-1,2-dihydro-1,8-naphthyridine-3-carboxamido)acetic acid] showed an IC50 of less than 50 nM.
For `Cn1c(=O)c(C(=O)NCC(=O)O)c(O)c2cc(C#CC3CC3)cnc21` [Example 82, 2-(6-(2-Cyclopropylethynyl)-4-hydroxy-1-methyl-2-oxo-1,2-dihydro-1,8-naphthyridine-3-carboxamido)acetic acid], the concentration for half-maximal inhibition (IC50) was less than 50 nM.
As to `CCCc1cnc2c(c1)c(O)c(C(=O)NCC(=O)O)c(=O)n2C` [Example 83, 2-(4-Hydroxy-1-methyl-2-oxo-6-propyl-1,2-dihydro-1,8-naphthyridine-3-carboxamido)acetic acid], the half-maximal inhibitory concentration (IC50) is 50 to 100 nM.
In turn, `CC#Cc1cnc2c(c1)c(O)c(C(=O)NCC(=O)O)c(=O)n2C` [Example 84, 2-(4-Hydroxy-1-methyl-2-oxo-6-(prop-1-ynyl)-1,2-dihydro-1,8-naphthyridine-3-carboxamido)acetic acid] returned an IC50 of 100 to 500 nM.
The result for `Cn1c(=O)c(C(=O)NCC(=O)O)c(O)c2cc(C#N)cnc21` [Example 85, N-((6-Cyano-4-hydroxy-1-methyl-2-oxo-1,2-dihydro-1,8-naphthyridin-3-yl)carbonyl)glycine] reads less than 50 nM; that for `Cn1c(=O)c(C(=O)NCC(=O)O)c(O)c2ccc(C(F)(F)F)nc21` [Example 86, 2-(4-Hydroxy-1-methyl-2-oxo-7-(trifluoromethyl)-1,2-dihydro-1,8-naphthyridine-3-carboxamido)acetic acid], less than 50 nM.
